Holding throughout (assay): cAMP accumulation
What all share (format): cell-based
Settings in all cases: mean ± S.E.M.; for Emax: cAMP maximal response, SEM; for EC50: cAMP, CV1-FlpIn cells, 30 min, IBMX

One assay has as its target T1, hCTR M367A (Homo sapiens, UniProt P30988, M367A).
T1 construct: c-Myc (N); expressed in transfected cells
T1 sequence (P30988 25-474 M367A): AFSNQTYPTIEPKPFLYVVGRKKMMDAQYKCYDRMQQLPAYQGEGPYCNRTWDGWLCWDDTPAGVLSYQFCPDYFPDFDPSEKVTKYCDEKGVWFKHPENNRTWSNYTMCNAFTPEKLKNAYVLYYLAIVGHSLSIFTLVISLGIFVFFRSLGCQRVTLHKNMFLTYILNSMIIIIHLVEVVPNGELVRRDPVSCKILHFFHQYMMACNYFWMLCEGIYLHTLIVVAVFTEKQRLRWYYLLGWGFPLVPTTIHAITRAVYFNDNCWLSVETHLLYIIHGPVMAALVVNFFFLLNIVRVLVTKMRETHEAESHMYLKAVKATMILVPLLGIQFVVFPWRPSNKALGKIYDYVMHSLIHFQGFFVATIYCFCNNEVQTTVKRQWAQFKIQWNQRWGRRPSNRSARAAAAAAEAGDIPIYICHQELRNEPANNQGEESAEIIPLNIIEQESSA
In short, it runs like this:
(§1)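 30 min ligand stimulation with IBMX present; cells seeded overnight beforehand. Ethanol extract, dried at RT.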

In the next assay the target is T2, hCTR P360A (Homo sapiens, UniProt P30988, P360A).
T2 construct: expressed in transfected cells
T2 sequence (P30988 25-474 P360A): T1 sequence (P30988 25-474 M367A) with P336A, A343M
The essentials:
as §1

A further assay addresses T3, hCTR S292A (Homo sapiens, UniProt P30988, S292A).
T3 construct: expressed in transfected cells
T3 sequence (P30988 25-474 S292A): T1 sequence (P30988 25-474 M367A) with S268A, A343M
The essentials:
as §1

The target in the next assay is T4, hCTR V375A (Homo sapiens, UniProt P30988, V375A).
T4 construct: c-Myc (N); expressed in transfected cells
T4 sequence (P30988 25-474 V375A): T1 sequence (P30988 25-474 M367A) with A343M, V351A
In short, it runs like this: as §1

The next assay deals with T5, hCTR P363A (Homo sapiens, UniProt P30988, P363A).
T5 construct: expressed in transfected cells
T5 sequence (P30988 25-474 P363A): T1 sequence (P30988 25-474 M367A) with P339A, A343M
In short, it runs like this:
as §1

The structures appear in SMILES notation. Substitutions are numbered along the chain they refer to. Where a SMILES comes first, the peptide text is derived from it. Bridges are numbered along the chain shown (N, C = ends).

Take `CC[C@H](C)[C@H](NC(=O)[C@H](C)NC(=O)[C@@H](NC(=O)[C@H](CCC(N)=O)NC(=O)[C@@H]1CCCN1C(=O)[C@H](Cc1ccccc1)NC(=O)[C@@H](NC(=O)[C@H](Cc1c[nH]cn1)NC(=O)[C@H](Cc1ccccc1)NC(=O)[C@H](CCCCN)NC(=O)[C@H](CC(N)=O)NC(=O)[C@H](Cc1ccccc1)NC(=O)[C@H](CC(=O)O)NC(=O)[C@H](CCC(N)=O)NC(=O)[C@@H](NC(=O)[C@H](Cc1ccc(O)cc1)NC(=O)[C@@H](NC(=O)CNC(=O)[C@H](CC(C)C)NC(=O)[C@H](CCSC)NC(=O)[C@@H]1CSSC[C@H](N)C(=O)NCC(=O)N[C@@H](CC(N)=O)C(=O)N[C@@H](CC(C)C)C(=O)N[C@@H](CO)C(=O)N[C@@H]([C@@H](C)O)C(=O)N1)[C@@H](C)O)[C@@H](C)O)[C@@H](C)O)[C@@H](C)O)C(=O)NCC(=O)N[C@H](C(=O)NCC(=O)N[C@@H](C)C(=O)N1CCC[C@H]1C(N)=O)C(C)C` [hCT]: the Emax (as a rule, the greatest response seen or fitted, relative to the assay's reference) on hCTR M367A came to 82 ± 4%; at hCTR P360A, 152 ± 8%; on hCTR S292A it was 135 ± 13%; on hCTR V375A, 122 ± 7%; at hCTR P363A, 111 ± 5%.

On to `CC(C)C[C@H](NC(=O)CNC(=O)[C@H](C)NC(=O)[C@H](CC(C)C)NC(=O)[C@H](CCCNC(=N)N)NC(=O)[C@H](Cc1cnc[nH]1)NC(=O)[C@@H](NC(=O)[C@@H](NC(=O)[C@@H]1CSSC[C@H](NC(=O)[C@H](C)N)C(=O)N[C@@H](CC(=O)O)C(=O)N[C@@H]([C@@H](C)O)C(=O)N[C@@H](C)C(=O)N[C@@H]([C@@H](C)O)C(=O)N1)C(C)C)[C@@H](C)O)C(=O)N[C@@H](CC(C)C)C(=O)N[C@@H](CO)C(=O)N[C@@H](CCCNC(=N)N)C(=O)N[C@@H](CO)C(=O)NCC(=O)NCC(=O)N[C@H](C(=O)N[C@H](C(=O)N[C@@H](CCCCN)C(=O)N[C@@H](CC(N)=O)C(=O)N[C@@H](CC(N)=O)C(=O)N[C@@H](Cc1ccccc1)C(=O)N[C@H](C(=O)N1CCC[C@H]1C(=O)N[C@H](C(=O)N[C@@H](CC(N)=O)C(=O)N[C@H](C(=O)NCC(=O)N[C@@H](CO)C(=O)N[C@@H](CCCCN)C(=O)N[C@@H](C)C(=O)N[C@@H](Cc1ccccc1)C(N)=O)C(C)C)[C@@H](C)O)C(C)C)C(C)C)C(C)C` [hαCGRP], for which the Emax at hCTR M367A is […]; on hCTR P360A, 48 ± 5%; at hCTR S292A, 106 ± 14%; on hCTR V375A, […]; at hCTR P363A, 38 ± 7%. The EC50 – broadly, the concentration giving half of the maximal effect – is […] at hCTR M367A; 17.4 nM on hCTR P360A; 22.4 nM on hCTR S292A; 20.4 nM on hCTR V375A; 38.9 nM at hCTR P363A.

Turning to `CSCC[C@H](NC(=O)CNC(=O)[C@H](CO)NC(=O)[C@H](Cc1ccccc1)NC(=O)[C@H](CCCNC(=N)N)NC(=O)[C@H](Cc1c[nH]cn1)NC(=O)[C@H](Cc1ccccc1)NC(=O)[C@H](CC(N)=O)NC(=O)[C@H](CC(N)=O)NC(=O)[C@H](CC(C)C)NC(=O)[C@H](CC(N)=O)NC(=O)[C@H](CCCNC(=N)N)NC(=O)[C@H](Cc1c[nH]c2ccccc12)NC(=O)[C@H](Cc1ccc(O)cc1)NC(=O)[C@H](C)NC(=O)[C@H](CO)NC(=O)[C@H](CC(C)C)NC(=O)[C@@H](NC(=O)[C@@H]1CSSC[C@H](N)C(=O)N[C@@H](CO)C(=O)N[C@@H](CC(N)=O)C(=O)N[C@@H](CC(C)C)C(=O)N[C@@H](CO)C(=O)N[C@@H]([C@@H](C)O)C(=O)N1)C(C)C)C(=O)NCC(=O)N[C@@H](Cc1ccccc1)C(=O)NCC(=O)N1CCC[C@H]1C(=O)N[C@@H](CCC(=O)O)C(=O)N[C@H](C(=O)N1CCC[C@H]1C(N)=O)[C@@H](C)O` [pCT] (H-CSNLSTCVLSAYWRNLNNFHRFSGMGFGPETP-NH2; disulfide 1-7), the Emax on hCTR M367A was 73 ± 13%; at hCTR P360A, 146 ± 13%; at hCTR S292A, 131 ± 9%; on hCTR V375A, 151 ± 8%; at hCTR P363A it was 148 ± 15%. Moreover, the EC50 was 0.0158 nM on hCTR M367A; 0.132 nM at hCTR P360A; 0.0316 nM on hCTR S292A; 0.0316 nM on hCTR V375A; 0.389 nM on hCTR P363A.

As for `CC(C)C[C@H](NC(=O)[C@H](CC(N)=O)NC(=O)[C@H](CC(N)=O)NC(=O)[C@H](CO)NC(=O)[C@H](CO)NC(=O)[C@H](CCCNC(=N)N)NC(=O)[C@@H](NC(=O)[C@H](CC(C)C)NC(=O)[C@H](Cc1ccccc1)NC(=O)[C@H](CC(N)=O)NC(=O)[C@H](C)NC(=O)[C@H](CC(C)C)NC(=O)[C@H](CCCNC(=N)N)NC(=O)[C@H](CCC(N)=O)NC(=O)[C@@H](NC(=O)[C@H](C)NC(=O)[C@@H]1CSSC[C@H](NC(=O)[C@@H](N)CCCCN)C(=O)N[C@@H](CC(N)=O)C(=O)N[C@@H]([C@@H](C)O)C(=O)N[C@@H](C)C(=O)N[C@@H]([C@@H](C)O)C(=O)N1)[C@@H](C)O)C(C)C)C(=O)NCC(=O)N1CCC[C@H]1C(=O)N[C@H](C(=O)N[C@@H](CC(C)C)C(=O)N1CCC[C@H]1C(=O)N1CCC[C@H]1C(=O)N[C@H](C(=O)N[C@@H](CC(N)=O)C(=O)N[C@H](C(=O)NCC(=O)N[C@@H](CO)C(=O)N[C@@H](CC(N)=O)C(=O)N[C@H](C(=O)N[C@@H](Cc1ccc(O)cc1)C(N)=O)[C@@H](C)O)C(C)C)[C@@H](C)O)C(C)C` [rAmy], the Emax on hCTR M367A stood at 93 ± 8%; on hCTR P360A, 115 ± 13%; at hCTR S292A, 95 ± 10%; on hCTR V375A, 92 ± 9%; on hCTR P363A it was 94 ± 20%.

The values are drawn from article PMC5908784, “Extracellular loops 2 and 3 of the calcitonin receptor selectively modify agonist binding and efficacy” (Biochemical Pharmacology, 2018).
